Experimental data: patent US8193185B2, “Use of tryptanthrin compounds for immune potentiation” (Novartis Vaccines and Diagnostics, Inc., priority 2003, dated 2012)

Tested on: human peripheral blood mononuclear cells (PBMC)
Assay: HTS assay for small molecule immune potentiators: TNF-a production by human PBMC (sandwich ELISA)
Type: cell-based
Conditions: human PBMC 500,000 per mL, 18 h at 37° C., secreted TNF by sandwich ELISA
Excerpt: Candidate small molecule immune potentiators can be identified in vitro. Compounds are screened in vitro for their ability to stimulate human peripheral blood mononuclear cells to produce cytokines (e.g. TNF-a and IL-12 p40). Apoptosis inducing small molecules may be identified having this activity. These small molecule immunopotentiators have potential utility as adjuvants and immunotherapeutics.
In an assay procedure (High Throughput Screening (HTS)) for small molecule immune potentiators (SMIPs), human peripheral blood mononuclear cells (PBMC), 500,000 per mL in RPMI 1640 medium with 10% FCS, are distributed in 96 well plates (100,000 per well) already containing 5 μM of compound in DMSO. The PBMCs are incubated for 18 h at 37° C. in 5% CO2. Their ability to produce cytokines in response to the small molecule compounds is determined using a modified sandwich ELISA.
Briefly supernatants from the PBMC cultures are assayed for secreted TNF using a primary plate bound antibody for capture followed by a secondary biotinylated anti-TNF antibody forming a sandwich. The biotinylated second antibody is then detected using streptavidin-Europium and the amount of bound europium is determined by time resolved fluorescence. Compounds are screened for their TNF inducing activity that is measured in the assay as increased Europim counts over cells incubated in RPMI medium alone. “Hits” are selected based on their TNF-inducing activity relative to an optimal dose of lipopolysaccaride LPS (1 μg/ml), a strong TNF inducer. The robustness of the assay and low backgrounds have allowed for the routine selection of hits with ˜10% of LPS activity that is normally between 5-10× background (cells alone). Selected hits are then subjected to confirmation for their ability to induce cytokines from multiple donors at decreasing concentrations. Those compounds with consistent activity at or below 5 μM are considered confirmed for the purposes of this assay. The assay is readily modified for screening for compounds effective at higher or lower concentrations.

| Structure (SMILES) | minimal effective concentration |
| --- | --- |
| O=C1c2cc([N+](=O)[O-])ccc2-n2c1nc1ccccc1c2=O [Compound 1001, 8-nitroindolo[2,1-b]quinazoline-6,12-dione] | ≤ 1.5 µM |
| O=C1c2cc(F)ccc2-n2c1nc1ccc(Cl)cc1c2=O [Compound 1002, 2-chloro-8-fluoroindolo[2,1-b]quinazoline-6,12-dione] | ≥ 5 µM |
| O=C1c2cc(F)ccc2-n2c1nc1ccc(F)cc1c2=O [Compound 1003, 2,8-difluoroindolo[2,1-b]quinazoline-6,12-dione] | ≥ 5 µM |
| O=C1c2cc(F)ccc2-n2c1nc1cc(F)ccc1c2=O [Compound 1004, 3,8-difluoroindolo[2,1-b]quinazoline-6,12-dione] | ≤ 1.5 µM |
| O=C1c2cccc(F)c2-n2c1nc1ccccc1c2=O [Compound 1005, 10-fluoroindolo[2,1-b]quinazoline-6,12-dione] | ≤ 1.5 µM |
| O=C1c2cc(F)ccc2-n2c1nc1cccc(F)c1c2=O [Compound 1006, 1,8-difluoroindolo[2,1-b]quinazoline-6,12-dione] | ≤ 1.5 µM |
| Cc1cccc2nc3n(c(=O)c12)-c1ccc(F)cc1C3=O [Compound 1007, 8-fluoro-1-methylindolo[2,1-b]quinazoline-6,12-dione] | ≤ 1.5 µM |
| O=C1c2cc(F)cc(F)c2-n2c1nc1ccccc1c2=O [Compound 1008, 8,10-difluoroindolo[2,1-b]quinazoline-6,12-dione] | ≤ 1.5 µM |
| O=C1c2cc(F)ccc2-n2c1nc1c(F)cccc1c2=O [Compound 1009, 4,8-difluoroindolo[2,1-b]quinazoline-6,12-dione] | ≥ 5 µM |
| O=C1c2cc(I)ccc2-n2c1nc1c(Br)cc(Br)cc1c2=O [Compound 1010, 2,4-dibromo-8-iodoindolo[2,1-b]quinazoline-6,12-dione] | ≥ 5 µM |
| Cc1cc(Cl)cc2c1-n1c(nc3ccccc3c1=O)C2=O [Compound 1011, 8-chloro-10-methylindolo[2,1-b]quinazoline-6,12-dione] | ≥ 5 µM |
| CC(C)(C)OC(=O)N1CCN(c2cc3nc4n(c(=O)c3cc2F)-c2ccc(I)cc2C4=O)CC1 [Compound 1012, 1,1-dimethylethyl 4-(2-fluoro-8-iodo-6,12-dioxo-6,12-dihydroindolo[2,1-b]quinazolin-3-yl)piperazine-1-carboxylate] | ≥ 5 µM |
| O=C1c2cc(I)ccc2-n2c1nc1c(Br)cc(Br)c(F)c1c2=O [Compound 1013, 2,4-dibromo-1-fluoro-8-iodoindolo[2,1-b]quinazoline-6,12-dione] | ≤ 1.5 µM |
| O=C1c2cc(I)ccc2-n2c1nc1c(Br)cc(Br)c(Cl)c1c2=O [Compound 1014, 2,4-dibromo-1-chloro-8-iodoindolo[2,1-b]quinazoline-6,12-dione] | ≤ 1.5 µM |
| O=C1c2ccccc2-n2c1nc1c(Br)cc(Br)c(F)c1c2=O [Compound 1015, 2,4-dibromo-1-fluoroindolo[2,1-b]quinazoline-6,12-dione] | ≤ 1.5 µM |
| O=C1c2cc(Cl)ccc2-n2c1nc1ccc(I)cc1c2=O [Compound 1016, 8-chloro-2-iodoindolo[2,1-b]quinazoline-6,12-dione] | ≤ 1.5 µM |
| O=C1c2cc(Cl)ccc2-n2c1nc1cc(F)ccc1c2=O [Compound 1017, 8-chloro-3-fluoroindolo[2,1-b]quinazoline-6,12-dione] | ≤ 1.5 µM |
| O=C1c2cc(Cl)ccc2-n2c1nc1cc(N3CCCCC3)ccc1c2=O [Compound 1018, 8-chloro-3-piperidin-1-ylindolo[2,1-b]quinazoline-6,12-dione] | ≥ 5 µM |
| O=C1c2cc(F)ccc2-n2c1nc1c(O)cccc1c2=O [Compound 1019, 8-fluoro-4-hydroxyindolo[2,1-b]quinazoline-6,12-dione] | ≤ 1.5 µM |
| CCNC(=O)c1ccc2c(c1)C(=O)c1nc3c(OC)cccc3c(=O)n1-2 [Compound 1020, N-ethyl-4-(methyloxy)-6,12-dioxo-6,12-dihydroindolo[2,1-b]quinazoline-8-carboxamide] | ≤ 1.5 µM |
| O=C1c2cc(OC(F)(F)F)ccc2-n2c1nc1ccccc1c2=O [Compound 1021, 8-[(trifluoromethyl)oxy]indol o[2,1-b]quinazoline-6,12-dione] | ≥ 5 µM |

| Structure (SMILES) | minimal effective concentration |
| --- | --- |
| O=C1c2cc(OC(F)(F)F)ccc2-n2c1nc1cc(F)ccc1c2=O [Compound 1022, 3-fluoro-8-[(trifluoromethyl)oxy]indol o[2,1-b]quinazoline-6,12-dione] | ≤ 1.5 µM |
| O=C1c2cc(OC(F)(F)F)ccc2-n2c1nc1cc(SCCO)ccc1c2=O [Compound 1023, 3-[(2-hydroxyethyl)thio]-8-[(trifluoromethyl)oxy]indol o[2,1-b]quinazoline-6,12-dione] | ≤ 1.5 µM |
| O=C1c2ccccc2-n2c1nc1ncccc1c2=O [Compound 1024, pyrido[2′,3′:4,5]pyrimido[1,2-a]indole-5,11-dione] | ≤ 1.5 µM |
| O=C1c2cc(F)ccc2-n2c1nc1ncccc1c2=O [Compound 1025, 9-fluoropyrido[2′,3′:4,5]pyri-mido[1,2-a]indole-5,11-dione] | ≤ 1.5 µM |
| O=C1c2cc(Br)ccc2-n2c1nc1ncccc1c2=O [Compound 1026, 9-bromopyrido[2′,3′:4,5]pyri-mido[1,2-a]indole-5,11-dione] | ≤ 1.5 µM |
| O=C1c2cc(Cl)ccc2-n2c1nc1ncccc1c2=O [Compound 1027, 9-chloropyrido[2′,3′:4,5]pyri-mido[1,2-a]indole-5,11-dione] | ≤ 1.5 µM |
| O=C1c2cc(I)ccc2-n2c1nc1ncccc1c2=O [Compound 1028, 9-iodopyrido[2′,3′:4,5]pyrimi-do[1,2-a]indole-5,11-dione] | ≤ 1.5 µM |
| CCOC(=O)c1ccc2c(c1)C(=O)c1nc3ncccc3c(=O)n1-2 [Compound 1029, ethyl 5,11-dioxo-5,11-dihydropyrido[2′,3′:4,5]py-rimido[1,2-a]indole-9-carboxylate] | ≤ 1.5 µM |
| CCCCCCCCNS(=O)(=O)c1ccc2c(c1)C(=O)c1nc3ncccc3c(=O)n1-2 [Compound 1030, N-octyl-5,11-dioxo-5,11-dihydropyrido[2′,3′:4,5]py-rimido[1,2-a]indole-9-sulfonamide] | ≤ 1.5 µM |
| O=C1c2c(cccc2C(F)(F)F)-n2c1nc1ncccc1c2=O [Compound 1031, 10-(trifluoromethyl)pyrido[2′, 3′:4,5]pyrimido[1,2-a]indole-5,11-dione] | ≤ 1.5 µM |
| CCOP(=O)(CCCC/C=C/c1ccc2c(c1)C(=O)c1nc3ncccc3c(=O)n1-2)OCC [Compound 1032, diethyl (5E)-6-(5,11-dioxo-5,11-dihydropyrido[2′,3′:4,5]py-rimido[1,2-a]indol-9-yl)hex-5-enylphosphonate] | ≥ 5 µM |
| CC(=O)OCCCC/C=C/c1ccc2c(c1)C(=O)c1nc3ncccc3c(=O)n1-2 [Compound 1033, (5E)-6-(5,11-dioxo-5,11-dihydropyrido[2′,3′:4,5]py-rimido[1,2-a]indol-9-yl)hex-5-enyl acetate] | ≤ 1.5 µM |
| O=C1c2cc(C(F)(F)F)ccc2-n2c1nc1ncccc1c2=O [Compound 1034, 9-(trifluoromethyl)pyrido[2′, 3′:4,5]pyrimido[1,2-a]indole-5,11-dione] | ≥ 5 µM |
| O=C1c2cc(CCCCCCOP(=O)(O)O)ccc2-n2c1nc1ncccc1c2=O [Compound 1035, 6-(5,11-dioxo-5,11-dihydropyrido[2′,3′:4,5]py-rimido[1,2-a]indol-9-yl)hexyl dihydrogen phosphate] | ≤ 1.5 µM |
| O=C1c2cc(OC(F)(F)F)ccc2-n2c1nc1ncccc1c2=O [Compound 1036, 9-[(trifluoromethyl)oxy]pyri-do[2′,3′:4,5]pyrimido[1,2-a]indole-5,11-dione] | ≤ 1.5 µM |
| O=C1c2ccccc2-n2c1nc1ccccc1c2=O [Compound 1037, indolo[2,1-b]quinazoline-6,12-dione] | ≥ 20 µM |
| O=C1c2cc(Cl)ccc2-n2c1nc1ccccc1c2=O [Compound 1038, 8-chloroindolo[2,1-b]quinazoline-6,12-dione] | ≥ 20 µM |
| CCOC(=O)c1ccc2c(c1)C(=O)c1nc3ccccc3c(=O)n1-2 [Compound 1039, ethyl 6,12-dioxo-6,12-dihydroindolo[2,1-b]quinazoline-8-carboxylate] | ≥ 20 µM |
| O=C1c2cc(I)ccc2-n2c1nc1c(O)cccc1c2=O [Compound 1040, 4-hydroxy-8-iodoindolo[2,1-b]quinazoline-6,12-dione] | ≥ 20 µM |
| O=C1c2cc(I)ccc2-n2c1nc1c(Cl)cc(Cl)cc1c2=O [Compound 1041, 2,4-dichloro-8-iodoindolo[2,1-b]quinazoline-6,12-dione] | ≥ 20 µM |
